Data from US9309242B2, “Substituted pyrido[2,3-b]pyrazines as FGFR kinase inhibitors” (priority 2011, dated 2016).

Assays:
KDR (h) = KDR (h) (Homo sapiens, UniProt P35968); test: KDR (VEGFR2) (enzymatic assay), TR-FRET; format: biochemical; details: read-out: VEGFR 2 (KDR) pIC50 (converted)
Summary of the method: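 Phosphorylation of biotinylated Flt3 peptide (500 nM) by 150 ng/ml enzyme was measured at 3 μM ATP in Mn2+-containing HEPES buffer, pH 7.5, over 120 min at room temperature. Detection used Eu-anti-P-Tyr and SA-XL-665 TR-FRET.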

[1] = biological target: T1, Ba/F3-FGFR1-transfected cells (Homo sapiens, UniProt P11362); test: Ba/F3-FGFR1 (minus IL3) cellular proliferation assay, Alamar Blue; format: cell-based
T1 construct: BAF3-FGFR1 (MIN IL3) pIC50; other: minus IL3
Summary of the method: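 Ba/F3-FGFR1 cells (20000 per well) were exposed to compound for 24 h at 37 °C in RPMI-1640 with 10% FBS. Alamar Blue (resazurin) was then added for 4 h, and fluorescence was read at ex 540/em 590 nm.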

[2] = tested on: Ba/F3-FGFR1-transfected cells; test: Ba/F3-FGFR1 (plus IL3) cellular proliferation assay, counterscreen with 10 ng/ml murine IL3; format: cell-based; details: plus IL3 (10 ng/ml murine IL3, counterscreen); read-out: BAF3-FGFR1 (PLUS IL3) pIC50 (converted)
Summary of the method: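 Proliferation read-out: resazurin-based Alamar Blue fluorescence (540/590 nm) after 4 h, following 24 h compound treatment of 20000 Ba/F3-FGFR1 cells per well in 10% FBS RPMI at 37° C. IL3 counterscreen used the same protocol plus 10 ng/ml murine IL3.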

[3] = tested on: Ba/F3-FGFR3-transfected cells; test: Ba/F3-FGFR3 (plus IL3) cellular proliferation assay, counterscreen with 10 ng/ml murine IL3; format: cell-based; details: plus IL3 (10 ng/ml murine IL3, counterscreen); read-out: BAF3-FGFR3 (PLUS IL3) pIC50 (converted)
Summary of the method: (§1)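 Ba/F3 cells transfected with FGFR3, 20000/well in phenol red-free RPMI-1640 with 10% FBS, exposed to compound for 24 h at 37 °C, 5% CO2. Alamar Blue (resazurin) added for 4 h more; fluorescence read at ex 540/em 590 nm. Counterscreen run the same way with 10 ng/ml murine IL3.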

[4] = biological target: T2, Ba/F3-FGFR3-transfected cells (Homo sapiens, UniProt P22607); test: Ba/F3-FGFR3 (minus IL3) cellular proliferation assay, Alamar Blue; format: cell-based
T2 construct: BAF3-FGFR3 (MIN IL3) pIC50; other: minus IL3
Summary of the method: as §1

FGFR3 (h) = FGFR3 (h) (Homo sapiens, UniProt P22607); test: FGFR3 (enzymatic assay), TR-FRET; format: biochemical; details: read-out: FGFR 3 pIC50 (converted)
Source text: Time-Resolved Fluorescence Resonance Energy Transfer (TR-FRET) signal (ex340 nm.

[5] = biological target: T3, Ba/F3-KDR-transfected cells (Homo sapiens, UniProt P35968); test: Ba/F3-KDR (minus IL3) cellular proliferation assay, Alamar Blue; format: cell-based
T3 construct: BAF3-KDR (MIN IL3) pIC50; other: minus IL3
Summary of the method: (§2)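 Compound in DMSO was dispensed first, then transfected cells in serum-containing RPMI-1640 were added. After a 24 h incubation, viability was gauged by resazurin reduction over 4 h, measured as fluorescence.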

[6] = tested on: Ba/F3-KDR-transfected cells; test: Ba/F3-KDR (plus IL3) cellular proliferation assay, counterscreen with 10 ng/ml murine IL3; format: cell-based; details: plus IL3 (10 ng/ml murine IL3, counterscreen); read-out: BAF3-KDR (PLUS IL3) pIC50 (converted)
Summary of the method: as §2

T1 sequence (P11362 whole entry, change not shown): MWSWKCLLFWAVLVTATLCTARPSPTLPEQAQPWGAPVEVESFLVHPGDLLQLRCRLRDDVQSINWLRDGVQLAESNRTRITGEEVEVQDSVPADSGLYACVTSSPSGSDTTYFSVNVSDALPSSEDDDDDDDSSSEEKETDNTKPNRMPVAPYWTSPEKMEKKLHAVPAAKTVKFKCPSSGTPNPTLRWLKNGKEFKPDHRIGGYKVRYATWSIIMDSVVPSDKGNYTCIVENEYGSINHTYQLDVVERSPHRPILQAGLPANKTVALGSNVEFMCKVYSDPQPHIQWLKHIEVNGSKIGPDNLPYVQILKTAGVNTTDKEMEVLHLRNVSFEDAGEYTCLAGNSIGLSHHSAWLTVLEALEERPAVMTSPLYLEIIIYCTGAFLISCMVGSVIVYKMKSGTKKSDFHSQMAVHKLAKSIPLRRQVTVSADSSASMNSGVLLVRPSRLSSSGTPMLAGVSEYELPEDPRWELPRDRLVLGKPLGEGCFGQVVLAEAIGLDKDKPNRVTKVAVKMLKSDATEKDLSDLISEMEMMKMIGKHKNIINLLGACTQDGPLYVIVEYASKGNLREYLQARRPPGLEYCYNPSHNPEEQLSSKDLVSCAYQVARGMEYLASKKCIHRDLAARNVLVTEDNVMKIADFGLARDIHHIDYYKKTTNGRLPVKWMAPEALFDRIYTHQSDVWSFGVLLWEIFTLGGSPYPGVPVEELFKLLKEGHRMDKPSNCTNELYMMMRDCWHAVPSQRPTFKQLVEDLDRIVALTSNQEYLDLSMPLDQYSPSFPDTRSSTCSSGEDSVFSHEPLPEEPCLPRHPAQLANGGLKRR
T2 sequence (P22607 whole entry, change not shown): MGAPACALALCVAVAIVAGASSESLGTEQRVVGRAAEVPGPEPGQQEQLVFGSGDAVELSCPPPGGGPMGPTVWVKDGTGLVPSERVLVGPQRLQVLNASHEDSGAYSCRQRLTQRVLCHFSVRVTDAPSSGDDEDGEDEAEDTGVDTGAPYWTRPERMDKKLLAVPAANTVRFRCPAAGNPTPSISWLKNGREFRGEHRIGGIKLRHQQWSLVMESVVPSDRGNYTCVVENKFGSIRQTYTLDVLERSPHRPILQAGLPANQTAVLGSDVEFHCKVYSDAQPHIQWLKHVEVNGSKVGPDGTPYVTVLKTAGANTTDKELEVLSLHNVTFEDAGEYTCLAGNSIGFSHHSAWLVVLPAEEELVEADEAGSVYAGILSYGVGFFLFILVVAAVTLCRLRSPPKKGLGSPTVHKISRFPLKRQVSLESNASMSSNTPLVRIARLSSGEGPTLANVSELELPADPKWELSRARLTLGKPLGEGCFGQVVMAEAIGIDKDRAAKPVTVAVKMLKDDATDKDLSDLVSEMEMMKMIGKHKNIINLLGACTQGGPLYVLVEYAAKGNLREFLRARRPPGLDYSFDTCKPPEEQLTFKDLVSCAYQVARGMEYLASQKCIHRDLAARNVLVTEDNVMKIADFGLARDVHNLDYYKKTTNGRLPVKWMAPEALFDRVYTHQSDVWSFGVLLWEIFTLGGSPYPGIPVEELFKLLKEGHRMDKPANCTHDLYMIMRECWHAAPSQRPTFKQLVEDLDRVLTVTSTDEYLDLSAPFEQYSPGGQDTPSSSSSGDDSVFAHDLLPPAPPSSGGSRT
Chain of FGFR3 (h) (P22607 23-806): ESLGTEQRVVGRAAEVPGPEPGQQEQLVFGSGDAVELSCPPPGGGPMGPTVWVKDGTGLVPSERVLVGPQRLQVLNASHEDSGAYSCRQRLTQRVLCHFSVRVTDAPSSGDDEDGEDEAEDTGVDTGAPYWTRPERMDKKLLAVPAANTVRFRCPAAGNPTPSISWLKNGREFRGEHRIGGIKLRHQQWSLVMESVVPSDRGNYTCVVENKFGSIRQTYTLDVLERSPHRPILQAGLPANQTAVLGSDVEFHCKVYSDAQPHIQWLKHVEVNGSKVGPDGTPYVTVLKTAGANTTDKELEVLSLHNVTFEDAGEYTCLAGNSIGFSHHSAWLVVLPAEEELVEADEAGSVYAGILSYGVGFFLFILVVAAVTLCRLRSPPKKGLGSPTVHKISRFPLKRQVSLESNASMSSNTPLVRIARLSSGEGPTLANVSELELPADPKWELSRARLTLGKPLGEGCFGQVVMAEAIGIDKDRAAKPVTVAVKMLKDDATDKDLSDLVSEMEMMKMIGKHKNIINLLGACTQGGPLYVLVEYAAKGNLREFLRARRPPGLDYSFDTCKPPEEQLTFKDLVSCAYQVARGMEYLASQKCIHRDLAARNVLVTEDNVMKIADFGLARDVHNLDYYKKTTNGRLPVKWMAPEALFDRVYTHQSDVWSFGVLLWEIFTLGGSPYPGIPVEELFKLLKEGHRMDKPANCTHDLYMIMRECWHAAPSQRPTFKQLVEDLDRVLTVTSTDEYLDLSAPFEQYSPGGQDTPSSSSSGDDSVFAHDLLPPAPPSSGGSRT
T3 sequence (P35968 whole entry, change not shown): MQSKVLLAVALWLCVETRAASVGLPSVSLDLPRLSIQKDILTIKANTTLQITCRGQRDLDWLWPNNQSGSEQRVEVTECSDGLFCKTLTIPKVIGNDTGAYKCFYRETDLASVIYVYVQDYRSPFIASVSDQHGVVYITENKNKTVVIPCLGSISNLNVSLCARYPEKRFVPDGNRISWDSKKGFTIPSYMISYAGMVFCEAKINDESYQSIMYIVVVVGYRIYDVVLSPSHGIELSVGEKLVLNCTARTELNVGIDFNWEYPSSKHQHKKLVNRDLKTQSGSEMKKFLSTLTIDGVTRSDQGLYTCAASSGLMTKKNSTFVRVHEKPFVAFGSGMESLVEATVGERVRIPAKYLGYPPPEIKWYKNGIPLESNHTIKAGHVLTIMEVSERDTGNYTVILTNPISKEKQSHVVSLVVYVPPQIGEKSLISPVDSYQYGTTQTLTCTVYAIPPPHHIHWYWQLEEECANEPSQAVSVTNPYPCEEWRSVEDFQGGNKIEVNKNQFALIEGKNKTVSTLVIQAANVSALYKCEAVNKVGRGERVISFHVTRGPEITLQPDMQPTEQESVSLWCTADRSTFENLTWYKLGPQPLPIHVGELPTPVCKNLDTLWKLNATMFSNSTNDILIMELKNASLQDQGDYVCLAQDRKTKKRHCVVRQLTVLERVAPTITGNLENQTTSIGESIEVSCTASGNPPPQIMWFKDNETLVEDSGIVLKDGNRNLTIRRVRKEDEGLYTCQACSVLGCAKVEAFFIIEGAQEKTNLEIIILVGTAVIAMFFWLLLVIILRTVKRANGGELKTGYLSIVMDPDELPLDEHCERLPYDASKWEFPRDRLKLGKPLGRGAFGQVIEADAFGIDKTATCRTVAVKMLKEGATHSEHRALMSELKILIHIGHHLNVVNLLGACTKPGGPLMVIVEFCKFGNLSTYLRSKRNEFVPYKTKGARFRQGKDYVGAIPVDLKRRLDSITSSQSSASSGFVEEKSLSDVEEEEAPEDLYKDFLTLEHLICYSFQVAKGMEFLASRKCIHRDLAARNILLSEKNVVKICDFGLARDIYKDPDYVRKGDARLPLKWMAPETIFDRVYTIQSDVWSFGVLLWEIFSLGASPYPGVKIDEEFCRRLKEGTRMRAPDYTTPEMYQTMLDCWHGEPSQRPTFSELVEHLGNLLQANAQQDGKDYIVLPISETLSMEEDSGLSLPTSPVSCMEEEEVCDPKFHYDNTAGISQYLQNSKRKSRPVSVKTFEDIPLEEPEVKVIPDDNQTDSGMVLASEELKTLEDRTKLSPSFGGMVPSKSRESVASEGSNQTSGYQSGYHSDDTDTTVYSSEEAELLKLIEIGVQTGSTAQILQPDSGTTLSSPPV
Chain of KDR (h) (P35968 20-1356): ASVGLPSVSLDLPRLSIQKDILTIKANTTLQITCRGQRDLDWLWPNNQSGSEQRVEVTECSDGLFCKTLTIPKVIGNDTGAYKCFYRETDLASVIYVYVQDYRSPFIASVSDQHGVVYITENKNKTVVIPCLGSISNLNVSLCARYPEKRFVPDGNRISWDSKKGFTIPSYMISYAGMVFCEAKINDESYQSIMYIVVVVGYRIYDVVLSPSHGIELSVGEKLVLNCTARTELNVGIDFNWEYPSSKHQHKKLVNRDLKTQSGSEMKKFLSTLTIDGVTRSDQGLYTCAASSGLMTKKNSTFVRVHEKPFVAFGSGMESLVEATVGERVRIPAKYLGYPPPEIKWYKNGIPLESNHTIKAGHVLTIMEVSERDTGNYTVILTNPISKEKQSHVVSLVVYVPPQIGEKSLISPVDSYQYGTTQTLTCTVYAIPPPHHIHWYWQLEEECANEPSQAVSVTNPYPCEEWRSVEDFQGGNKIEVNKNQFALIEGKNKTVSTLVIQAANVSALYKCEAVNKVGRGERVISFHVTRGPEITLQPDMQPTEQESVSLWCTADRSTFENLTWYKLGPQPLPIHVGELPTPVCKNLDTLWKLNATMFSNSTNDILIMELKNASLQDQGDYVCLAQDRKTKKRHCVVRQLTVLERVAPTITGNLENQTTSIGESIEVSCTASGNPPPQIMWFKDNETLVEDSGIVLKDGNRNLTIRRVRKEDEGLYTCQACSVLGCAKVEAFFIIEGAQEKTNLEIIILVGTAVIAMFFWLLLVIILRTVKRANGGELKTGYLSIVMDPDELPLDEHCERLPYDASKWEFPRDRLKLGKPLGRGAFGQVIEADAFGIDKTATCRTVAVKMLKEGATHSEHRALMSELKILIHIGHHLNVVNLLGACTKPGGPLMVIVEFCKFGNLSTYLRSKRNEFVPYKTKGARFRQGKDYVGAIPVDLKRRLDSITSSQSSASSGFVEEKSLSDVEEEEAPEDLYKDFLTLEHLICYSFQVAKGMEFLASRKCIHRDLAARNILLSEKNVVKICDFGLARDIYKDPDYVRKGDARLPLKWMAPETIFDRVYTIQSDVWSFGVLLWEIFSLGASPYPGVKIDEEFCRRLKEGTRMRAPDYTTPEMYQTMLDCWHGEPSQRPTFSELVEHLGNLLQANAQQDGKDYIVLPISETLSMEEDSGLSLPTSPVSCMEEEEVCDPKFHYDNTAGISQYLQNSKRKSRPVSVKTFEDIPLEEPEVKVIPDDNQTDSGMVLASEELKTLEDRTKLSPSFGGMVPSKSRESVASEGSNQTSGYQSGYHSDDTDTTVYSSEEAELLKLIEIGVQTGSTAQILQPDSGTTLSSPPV

SMILES | IC50 (KDR (h)) | BAF3-FGFR1 (MIN IL3) pIC50 [1] | IC50 [2] | IC50 [3] | BAF3-FGFR3 (MIN IL3) pIC50 [4] | IC50 (FGFR3 (h)) | BAF3-KDR (MIN IL3) pIC50 [5] | IC50 [6]
COc1cc(/N=c2\ccc3ncc(-c4cnn(C)c4)nc3n2CC2CCC(=O)N2)cc(OC)c1 (centres unmarked) [Compound 248] | 20 nM | 6.70 | > 10000 nM | > 10000 nM | 6.67 | 1.82 nM | 5.76 | > 10000 nM
COc1cc(OC)c(F)c(N(CC2CCC(=O)N2CCO)c2ccc3ncc(-c4cnn(C)c4)nc3n2)c1 (centres unmarked) [Compound 194] | 126 nM | 6.30 | > 10000 nM | > 10000 nM | 6.16 | 8.51 nM | 5.18 | > 10000 nM
COc1cc(OC)c(F)c(N(CC(=O)O)c2ccc3ncc(-c4cnn(C)c4)nc3n2)c1 [Compound 231] | 200 nM | 5.27 | > 10000 nM | > 10000 nM | 5.75 | 3.98 nM | <5 | > 10000 nM
COc1cc(OC)c(F)c(N(CC2CCOC2)c2ccc3ncc(-c4cnn(C)c4)nc3n2)c1 (single isomer, unassigned) [Compound 170] | 13.5 nM | 6.92 | > 10000 nM | > 10000 nM | 6.78 | 2.19 nM | 5.56 | > 10000 nM
COc1cc(/N=c2\ccc3ncc(-c4cnn(C)c4)nc3n2CCN2CCCC2=O)c(F)c(OC)c1 [Compound 156] | 29.5 nM | 7.17 | > 10000 nM | > 10000 nM | 7.27 | 1.91 nM | 5.52 | > 10000 nM
COc1cc(/N=c2\ccc3ncc(-c4cnn(C)c4)nc3n2CC2CCC(=O)N2CCO)c(F)c(OC)c1 (single isomer, unassigned) [Compound 219] | 7.94 nM | 7.77 | > 10000 nM | > 10000 nM | 7.66 | 1.29 nM | 6.38 | > 10000 nM
COc1cc(OC)c(F)c(N(Cc2nc(CO)c[nH]2)c2ccc3ncc(-c4cnn(C)c4)nc3n2)c1 [Compound 232] | 22.4 nM | 7.45 | > 10000 nM | > 10000 nM | 7.81 | 1.29 nM | 5.83 | > 10000 nM
COc1cc(OC)cc(N(Cc2nc(OC)cc(OC)n2)c2ccc3ncc(-c4cnn(C)c4)nc3n2)c1 [Compound 174] | 89.1 nM | 5.68 | > 10000 nM | > 10000 nM | 5.57 | 36.3 nM | <5 | > 10000 nM
COc1cc(/N=c2\ccc3ncc(-c4cnn(C)c4)nc3n2CCN2CCOCC2)c(F)c(OC)c1 [Compound 148] | 5.01 nM | 7.58 | > 10000 nM | > 10000 nM | 7.21 | 1.26 nM | 6.26 | > 10000 nM
Cn1cc(-c2cnc3ccc(N(Cc4ncc[nH]4)c4c(F)c(F)cc(F)c4F)nc3n2)cn1 [Compound 175] | 219 nM | 6.87 | > 10000 nM | > 10000 nM | 6.86 | 2 nM | <5 | > 10000 nM
